Source: US20100056508A1, “AMINE DERIVATIVES AND THEIR USE IN BETA-2-ADRENORECEPTOR MEDIATED DISEASES” (ASTRAZENECA AB, priority 2006, published 2010)

Experiments:
Adrenergic β2 = target: T1, Adrenergic β2 (Homo sapiens, UniProt P07550); assay: Adrenergic β2 mediated cAMP production in H292 cells (AlphaScreen cAMP detection); format: cell-based; design: key to β2 Int Act: fraction of formoterol maximum activity (formoterol = 1); details: for β2 Int Act: Intrinsic Activity as a fraction relative to the maximum activity determined for formoterol; for EC50: cAMP production, 60 minutes at room temperature, 300 μM rolipram, read-out: β2 pEC50 (converted)
T1 construct: Adherent H292 cells were removed from tissue culture flasks; endogenous in cells; host or cells: H292 cells
T1 sequence (P07550 whole entry): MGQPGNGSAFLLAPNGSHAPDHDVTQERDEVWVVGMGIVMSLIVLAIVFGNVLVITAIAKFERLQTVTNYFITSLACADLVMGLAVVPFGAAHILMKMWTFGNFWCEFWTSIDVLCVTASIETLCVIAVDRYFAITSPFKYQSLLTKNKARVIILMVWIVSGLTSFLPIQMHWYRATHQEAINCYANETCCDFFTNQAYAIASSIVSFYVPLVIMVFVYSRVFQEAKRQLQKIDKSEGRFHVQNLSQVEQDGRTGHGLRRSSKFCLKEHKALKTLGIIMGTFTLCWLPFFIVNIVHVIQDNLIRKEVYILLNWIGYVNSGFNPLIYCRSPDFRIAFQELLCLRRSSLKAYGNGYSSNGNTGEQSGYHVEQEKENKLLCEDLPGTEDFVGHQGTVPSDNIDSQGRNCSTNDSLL
Method: Adrenergic β2 Mediated cAMP Production
H292 cells were grown in 225 cm2 flasks incubator at 37° C., 5% CO2 in RPMI medium containing, 10% (v/v) FBS (foetal bovine serum) and 2 mM L-glutamine.
Adherent H292 cells were removed from tissue culture flasks by treatment with Accutase™ cell detachment solution for 15 minutes. Flasks were incubated for 15 minutes in a humidified incubator at 37° C., 5% CO2. Detached cells were re-suspended in RPMI media (containing 10% (v/v) FBS and 2 mM L-glutamine) at 1×10^6 cells per mL. 10000 cells in 100 μL were added to each well of a tissue-culture-treated 96-well plate and the cells incubated overnight in a humidified incubator at 37° C., 5% CO2. The culture media was removed and cells were washed twice with 100 μL assay buffer and replaced with 50 μL assay buffer (HBSS solution containing 10 mM HEPES pH7.4 and 5 mM glucose). Cells were rested at room temperature for 20 minutes after which time 25 μL of rolipram (1.2 mM made up in assay buffer containing 2.4% (v/v) dimethylsulphoxide) was added. Cells were incubated with rolipram for 10 minutes after which time test compounds were added and the cells were incubated for 60 minutes at room temperature. The final rolipram concentration in the assay was 300 μM and final vehicle concentration was 1.6% (v/v) dimethylsulphoxide. The reaction was stopped by removing supernatants, washing once with 100 μL assay buffer and replacing with 50 μL lysis buffer. The cell monolayer was frozen at −80° C. for 30 minutes (or overnight).
AlphaScreen™ cAMP Detection
The concentration of cAMP (cyclic adenosine monophosphate) in the cell lysate was determined using AlphaScreen™ methodology. The frozen cell plate was thawed for 20 minutes on a plate shaker then 10 μL of the cell lysate was transferred to a 96-well white plate. 40 μL of mixed AlphaScreen™ detection beads pre-incubated with biotinylated cAMP, was added to each well and the plate incubated at room temperature for 10 hours in the dark. The AlphaScreen™ signal was measured using an EnVision spectrophotometer (Perkin-Elmer Inc.) with the recommended manufacturer's settings. cAMP concentrations were determined by reference to a calibration curve determined in the same experiment using standard cAMP concentrations. Concentration response curves for agonists were constructed and data was fitted to a four parameter logistic equation to determine both the pEC50 and Intrinsic Activity. Intrinsic Activity was expressed as a fraction relative to the maximum activity determined for formoterol in each experiment.

[1] = target: T2, recombinant human α1D receptor (Homo sapiens, UniProt P25100); assay: Adrenergic α1D selectivity assay, [3H]-prazosin binding to membranes; details: inhibition of [3H]-prazosin binding, HEK cell membranes, read-out: α1 bind pIC50 (converted)
T2 construct: expressed in transfected cells; host or cells: human embryonic kidney 293 cells (HEK93 [sic]), membranes
T2 sequence (P25100 1-572): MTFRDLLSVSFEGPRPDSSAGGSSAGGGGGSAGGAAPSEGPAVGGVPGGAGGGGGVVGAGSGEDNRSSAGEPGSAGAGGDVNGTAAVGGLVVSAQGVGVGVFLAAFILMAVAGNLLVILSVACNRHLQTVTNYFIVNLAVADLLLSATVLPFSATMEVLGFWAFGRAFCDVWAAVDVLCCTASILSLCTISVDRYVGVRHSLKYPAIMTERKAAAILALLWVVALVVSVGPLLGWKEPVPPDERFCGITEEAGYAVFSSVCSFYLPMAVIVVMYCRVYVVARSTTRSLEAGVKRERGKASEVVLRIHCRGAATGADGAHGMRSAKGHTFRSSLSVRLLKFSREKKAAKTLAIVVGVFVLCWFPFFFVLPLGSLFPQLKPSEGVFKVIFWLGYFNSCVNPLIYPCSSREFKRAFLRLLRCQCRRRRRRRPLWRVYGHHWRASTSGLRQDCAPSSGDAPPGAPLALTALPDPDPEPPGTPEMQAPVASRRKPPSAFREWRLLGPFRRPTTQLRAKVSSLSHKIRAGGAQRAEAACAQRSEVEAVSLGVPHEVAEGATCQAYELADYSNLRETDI
Method: Membranes were prepared from human embryonic kidney 293 ([…]) cells expressing recombinant human α1D receptor. These were diluted in Assay Buffer (50 mM HEPES, 1 mM EDTA, pH 7.4) to provide a final concentration of membranes that gave a clear window between maximum and minimum specific binding.
(§1) Assays were performed in U-bottomed 96-well polypropylene plates. 10 μL [^3H]-prazosin (0.3 nM final concentration) and 10 mL of test compound (10× final concentration) were added to each test well. For each assay plate 8 replicates were obtained for [^3H]-prazosin binding in the presence of 10 μL vehicle (10% (v/v) DMSO in Assay Buffer; defining maximum binding) or 10 μL BMY7378 (10 μM final concentration; defining non-specific binding (NSB)). Membranes were then added to achieve a final volume of 100 μL. The plates were incubated for 2 hours at room temperature and then filtered onto PEI coated GF/B filter plates, pre-soaked for 1 hour in Assay Buffer, using a 96-well plate Tomtec cell harvester. Five washes with 250 μL wash buffer (50 mM HEPES, 1 mM EDTA, pH 7.4) were performed at 4° C. to remove unbound radioactivity. The plates were dried then sealed from underneath using Packard plate sealers and MicroScint-O (50 μL) was added to each well. The plates were sealed (TopSeal A) and filter-bound radioactivity was measured with a scintillation counter (TopCount, Packard BioScience) using a 3-minute counting protocol.
(§2) Total specific binding (B0) was determined by subtracting the mean NSB from the mean maximum binding. NSB values were also subtracted from values from all other wells. […] Data was fitted to a four parameter logistic equation to determine the compound potency, which was expressed as pIC50 (negative log molar concentration inducing 50% inhibition of [^3H]-prazosin binding).

[2] = target: T3, recombinant human adrenergic beta 1 receptors (Homo sapiens, UniProt P08588); assay: Adrenergic β1 selectivity assay, [125I]-Iodocyanopindolol binding to membranes; details: inhibition of [125I]-Iodocyanopindolol binding, read-out: β1 bind pIC50 (converted)
T3 construct: purchased Euroscreen
T3 sequence (P08588 whole entry): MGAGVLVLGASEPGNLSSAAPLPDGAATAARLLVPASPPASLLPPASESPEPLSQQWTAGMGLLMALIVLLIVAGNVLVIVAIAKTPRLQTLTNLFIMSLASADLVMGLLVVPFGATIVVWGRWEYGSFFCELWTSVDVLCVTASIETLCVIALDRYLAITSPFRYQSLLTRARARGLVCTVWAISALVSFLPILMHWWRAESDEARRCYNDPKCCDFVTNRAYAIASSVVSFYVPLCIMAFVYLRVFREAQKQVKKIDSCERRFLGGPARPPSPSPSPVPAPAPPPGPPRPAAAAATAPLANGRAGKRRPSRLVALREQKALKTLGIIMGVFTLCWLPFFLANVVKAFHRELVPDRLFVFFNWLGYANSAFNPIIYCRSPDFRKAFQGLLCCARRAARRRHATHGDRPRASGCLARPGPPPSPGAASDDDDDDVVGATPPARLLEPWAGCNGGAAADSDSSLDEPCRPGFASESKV
Method: (§3) Membranes containing recombinant human adrenergic beta 1 receptors were obtained from Euroscreen. These were diluted in Assay Buffer (50 mM HEPES, 1 mM EDTA, 120 mM NaCl, 0.1% gelatin, pH 7.4) to provide a final concentration of membranes that gave a clear window between maximum and minimum specific binding.
as §1, with “[^125I]-Iodocyanopindolol (0.036” for “[^3H]-prazosin (0.3”, “μL” for “mL”, “[^125I]-Iodocyanopindolol” for “[^3H]-prazosin”, “Propranolol” for “BMY7378”, “EDTA, 120 mM NaCl,” for “EDTA,”
as §2, with “[^125I]-Iodocyanopindolol” for “[^3H]-prazosin”

[3] = target: T4, recombinant human Dopamine Subtype D2s receptors (Homo sapiens, UniProt P14416); assay: Dopamine D2 selectivity assay, [3H]-spiperone binding to membranes; details: inhibition of [3H]-spiperone binding, read-out: D2 bind pIC50 (converted)
T4 construct: purchased Perkin Elmer
T4 sequence (P14416 1-414 isoform P14416-2): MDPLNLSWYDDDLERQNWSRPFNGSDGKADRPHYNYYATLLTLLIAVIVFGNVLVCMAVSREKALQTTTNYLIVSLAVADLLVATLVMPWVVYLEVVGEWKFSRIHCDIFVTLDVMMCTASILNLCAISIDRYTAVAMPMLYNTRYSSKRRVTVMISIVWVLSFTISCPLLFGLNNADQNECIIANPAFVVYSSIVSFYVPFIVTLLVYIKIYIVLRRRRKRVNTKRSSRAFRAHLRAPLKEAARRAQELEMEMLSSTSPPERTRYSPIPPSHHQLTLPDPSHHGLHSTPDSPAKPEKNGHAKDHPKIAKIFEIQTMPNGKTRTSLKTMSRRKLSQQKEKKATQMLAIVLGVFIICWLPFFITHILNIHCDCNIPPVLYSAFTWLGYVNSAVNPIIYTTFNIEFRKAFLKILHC
Method: as §3, with “Dopamine Subtype D2s” for “adrenergic beta 1”, “Perkin Elmer.” for “Euroscreen.”
Assays were performed in U-bottomed 96-well polypropylene plates. 30 μL [^3H]-spiperone (0.16 nM final concentration) and 30 μL of test compound (10× final concentration) were added to each test well. For each assay plate 8 replicates were obtained for [^3H]-spiperone binding in the presence of 30 μL vehicle (10% (v/v) DMSO in Assay Buffer; defining maximum binding) or 30 μL Haloperidol (10 μM final concentration; defining non-specific binding (NSB)). Membranes were then added to achieve a final volume of 300 μL. The plates were incubated for 2 hours at room temperature and then filtered onto PEI coated GF/B filter plates, pre-soaked for 1 hour in Assay Buffer, using a 96-well plate Tomtec cell harvester. Five washes with 250 μL wash buffer (50 mM HEPES, 1 mM EDTA, 120 mM NaCl, pH 7.4) were performed at 4° C. to remove unbound radioactivity. The plates were dried then sealed from underneath using Packard plate sealers and MicroScint-0 (50 μL) was added to each well. The plates were sealed (TopSeal A) and filter-bound radioactivity was measured with a scintillation counter (TopCount, Packard BioScience) using a 3-minute counting protocol.
as §2, with “[^3H]-spiperone” for “[^3H]-prazosin”

| Structure (SMILES) | β2 Int Act (Adrenergic β2) | EC50 (Adrenergic β2) | IC50 [1] | IC50 [2] | IC50 [3] |
| --- | --- | --- | --- | --- | --- |
| O=C(CCNCCc1cc(F)cc(F)c1)N(CCNCCc1ccc(O)c2[nH]c(=O)ccc12)C1CCCCCC1 [Example 10, N-Cycloheptyl-3-(3,5-difluorophenethylamino)-N-(2-(2-(8-hydroxy-2-oxo-1,2-dihydroquinolin-5-yl)ethylamino)ethyl)propanamide bis(trifluoroacetate)] | 0.85 | 20 nM | 316 nM | > 7940 nM | – |
| O=C(CCNCCc1ccc(F)c(F)c1)N(CCNCCc1ccc(O)c2[nH]c(=O)ccc12)C1CCCCC1 [Example 16, N-Cyclohexyl-3-(3,4-difluorophenethylamino)-N-(2-(2-(8-hydroxy-2-oxo-1,2-dihydroquinolin-5-yl)ethylamino)ethyl)propanamide bis(trifluoroacetate)] | 0.85 | 20 nM | 316 nM | > 10000 nM | – |
| Cc1ccc(F)c(CCNCCC(=O)N(CCNCCc2ccc(O)c3c2OCC(=O)N3)C2CCCCC2)c1 [Example 33, N-Cyclohexyl-3-(2-fluoro-5-methylphenethylamino)-N-(2-(2-(5-hydroxy-3-oxo-3,4-dihydro-2H-benzo[b][1,4]oxazin-8-yl)ethylamino)ethyl)propanamide bis(trifluoroacetate)] | 0.9 | 1.58 nM | 79.4 nM | 2510 nM | – |
| O=C1COc2c(CCNCCN(C(=O)CCNCCc3cc(Cl)ccc3F)C3CCCCC3)ccc(O)c2N1 [Example 34, 3-(5-Chloro-2-fluorophenethylamino)-N-cyclohexyl-N-(2-(2-(5-hydroxy-3-oxo-3,4-dihydro-2H-benzo[b][1,4]oxazin-8-yl)ethylamino)ethyl)propanamide bis(trifluoroacetate)] | 0.9 | 1.58 nM | 63.1 nM | 1000 nM | – |
| Cl.O=C(CCOCCc1ccc(F)cc1)N(CCNCCc1ccc(O)c2[nH]c(=O)ccc12)C1CCCCC1 [Example 71, N-Cyclohexyl-3-(4-fluorophenethoxy)-N-(2-(2-(8-hydroxy-2-oxo-1,2-dihydroquinolin-5-yl)ethylamino)ethyl)propanamide hydrochloride] | 0.85 | 10 nM | 631 nM | – | 3980 nM |
| Cl.O=C(CCOCCc1cccc(F)c1)N(CCNCCc1ccc(O)c2[nH]c(=O)ccc12)C1CCCCC1 [Example 72, N-Cyclohexyl-3-(3-fluorophenethoxy)-N-(2-(2-(8-hydroxy-2-oxo-1,2-dihydroquinolin-5-yl)ethylamino)ethyl)propanamide hydrochloride] | 0.92 | 5.01 nM | 501 nM | – | 3980 nM |
| Cl.O=C(CCOCCc1ccccc1F)N(CCNCCc1ccc(O)c2[nH]c(=O)ccc12)C1CCCCC1 [Example 73, N-Cyclohexyl-3-(2-fluorophenethoxy)-N-(2-(2-(8-hydroxy-2-oxo-1,2-dihydroquinolin-5-yl)ethylamino)ethyl)propanamide hydrochloride] | 0.94 | 3.98 nM | 631 nM | – | 5010 nM |
